Reference: patent US10815230B2, “Casein kinase 1 delta inhibitor” (ELECTROPHORETICS LIMITED, priority 2015, dated 2020)
Marks after values point to notes of the source that are not given here.

Tests used:
Test in all cases: Kinase selectivity, % remaining activity
Format in all cases: biochemical
Details in all cases: 10 μM compound, 10 μM ATP, duplicate; for remaining activity at 10 µM: read-out: % of remaining activity (relative to DMSO)
RIPK2 = RIPK2 (Homo sapiens, UniProt O43353)
Experimental: (§1) A two-tier strategy to determine the selectivity of compound A was applied: first, the compound was tested at a single concentration (in duplicate) to determine the %-remaining activity of the target kinase. Subsequently, the IC50 of compound A and comparative compounds for casein kinase 1 delta were determined.
(§2) Compounds were tested in single dose duplicate mode at a concentration of 10 μM (in DMSO) and reactions were carried out at 10 μM ATP, Table 3 reports the % of remaining activity (relative to DMSO).

YES/YES1 = YES/YES1 (Homo sapiens, UniProt P07947)
Experimental: as §1, §2

PKA = PKA (Homo sapiens, UniProt P17612)
Experimental: as §1, §2

CK1g3 = CK1g3 (Homo sapiens, UniProt Q9Y6M4)
Experimental: as §1, §2

c-Src = c-Src (Homo sapiens, UniProt P12931)
Experimental: as §1, §2

PKCb2 = PKCb2 (Homo sapiens, UniProt P05771)
Experimental: as §1, §2

ALK5/TGFBR1 = biological target: T1, ALK5/TGFBR1 (Homo sapiens, UniProt P36897)
T1 sequence (P36897 34-503): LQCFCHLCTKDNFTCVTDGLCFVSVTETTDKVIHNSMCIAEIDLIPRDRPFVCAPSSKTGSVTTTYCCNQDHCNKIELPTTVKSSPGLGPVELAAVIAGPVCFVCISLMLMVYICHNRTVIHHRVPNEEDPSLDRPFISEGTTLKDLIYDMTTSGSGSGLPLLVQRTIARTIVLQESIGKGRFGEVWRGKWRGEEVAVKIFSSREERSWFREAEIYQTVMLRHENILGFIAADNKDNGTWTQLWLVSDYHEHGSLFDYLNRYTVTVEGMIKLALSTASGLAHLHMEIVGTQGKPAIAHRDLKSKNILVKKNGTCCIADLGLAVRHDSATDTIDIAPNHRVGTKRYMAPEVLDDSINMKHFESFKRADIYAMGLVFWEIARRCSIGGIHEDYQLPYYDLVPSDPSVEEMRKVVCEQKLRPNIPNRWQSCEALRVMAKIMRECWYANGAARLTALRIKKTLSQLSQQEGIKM
Experimental: as §1, §2

CDK5/p25 = CDK5/p25 (Homo sapiens, UniProt Q00535)
Experimental: as §1, §2

P38a/MAPK14 = P38a/MAPK14 (Homo sapiens, UniProt Q16539)
Experimental: as §1, §2

JNK2 = JNK2 (Homo sapiens, UniProt P45984)
Experimental: as §1, §2

LCK = LCK (Homo sapiens, UniProt P06239)
Experimental: as §1, §2

EGFR = EGFR (Homo sapiens, UniProt P00533)
Experimental: as §1, §2

MSK1/RPS6KA5 = MSK1/RPS6KA5 (Homo sapiens, UniProt O75582)
Experimental: as §1, §2

PDK1/PDPK1 = biological target: T2, PDK1/PDPK1 (Homo sapiens, UniProt O15530)
T2 sequence (O15530 1-556): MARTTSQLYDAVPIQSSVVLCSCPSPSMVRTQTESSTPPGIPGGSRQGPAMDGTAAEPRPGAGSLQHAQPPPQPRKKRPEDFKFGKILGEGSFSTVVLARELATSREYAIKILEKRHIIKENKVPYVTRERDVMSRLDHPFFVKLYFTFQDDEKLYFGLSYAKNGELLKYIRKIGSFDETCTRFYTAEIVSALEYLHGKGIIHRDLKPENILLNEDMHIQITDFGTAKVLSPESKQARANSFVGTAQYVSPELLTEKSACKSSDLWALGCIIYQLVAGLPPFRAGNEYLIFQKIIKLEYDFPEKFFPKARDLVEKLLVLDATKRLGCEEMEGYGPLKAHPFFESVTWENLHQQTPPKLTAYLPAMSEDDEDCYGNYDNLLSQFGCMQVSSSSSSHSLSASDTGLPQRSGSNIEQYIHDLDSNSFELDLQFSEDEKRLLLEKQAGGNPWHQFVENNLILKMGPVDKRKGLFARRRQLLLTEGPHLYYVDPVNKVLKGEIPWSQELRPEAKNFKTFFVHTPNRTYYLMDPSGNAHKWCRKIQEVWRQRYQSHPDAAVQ
Experimental: as §1, §2

GSK3B = GSK3B (Homo sapiens, UniProt P49841)
Experimental: as §1, §2

KDR/VEGFR2 = KDR/VEGFR2 (Homo sapiens, UniProt P35968)
Experimental: as §1, §2

CLK2 = CLK2 (Homo sapiens, UniProt P49760)
Experimental: as §1, §2

CK1g2 = CK1g2 (Homo sapiens, UniProt P78368)
Experimental: as §1, §2

EPHA2 = EPHA2 (Homo sapiens, UniProt P29317)
Experimental: as §1, §2

CK1g1 = CK1g1 (Homo sapiens, UniProt Q9HCP0)
Experimental: as §1, §2

CK1e = CK1e (Homo sapiens, UniProt P49674)
Experimental: as §1, §2

PIM3 = PIM3 (Homo sapiens, UniProt Q86V86)
Experimental: as §1, §2

TNIK = TNIK (Homo sapiens, UniProt Q9UKE5)
Experimental: as §1, §2

Chain of YES/YES1 (P07947 whole entry): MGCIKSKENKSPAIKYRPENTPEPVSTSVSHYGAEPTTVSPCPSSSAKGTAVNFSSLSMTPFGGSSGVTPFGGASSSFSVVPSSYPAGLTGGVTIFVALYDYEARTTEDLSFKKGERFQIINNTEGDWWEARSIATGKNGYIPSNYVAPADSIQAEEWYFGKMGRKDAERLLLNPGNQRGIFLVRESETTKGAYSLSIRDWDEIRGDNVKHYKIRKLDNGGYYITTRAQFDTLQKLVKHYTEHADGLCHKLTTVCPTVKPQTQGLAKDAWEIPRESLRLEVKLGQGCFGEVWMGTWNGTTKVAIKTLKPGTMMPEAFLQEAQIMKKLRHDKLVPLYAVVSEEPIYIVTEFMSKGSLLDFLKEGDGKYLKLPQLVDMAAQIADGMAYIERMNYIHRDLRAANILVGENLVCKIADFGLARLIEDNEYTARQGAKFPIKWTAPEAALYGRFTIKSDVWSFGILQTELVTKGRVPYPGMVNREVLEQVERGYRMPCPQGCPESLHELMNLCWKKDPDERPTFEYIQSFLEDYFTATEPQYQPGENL
Chain of P38a/MAPK14 (Q16539 whole entry): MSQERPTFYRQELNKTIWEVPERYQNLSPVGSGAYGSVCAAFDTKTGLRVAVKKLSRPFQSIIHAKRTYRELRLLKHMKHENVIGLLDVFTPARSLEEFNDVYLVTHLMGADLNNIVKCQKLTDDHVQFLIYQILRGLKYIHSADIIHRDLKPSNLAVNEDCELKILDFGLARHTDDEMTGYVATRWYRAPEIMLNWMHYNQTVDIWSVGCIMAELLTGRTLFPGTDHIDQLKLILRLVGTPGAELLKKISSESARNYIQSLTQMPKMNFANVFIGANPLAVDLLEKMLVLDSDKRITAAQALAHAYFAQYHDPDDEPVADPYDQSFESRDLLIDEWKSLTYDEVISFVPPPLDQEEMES
Chain of c-Src (P12931 whole entry, species assumed): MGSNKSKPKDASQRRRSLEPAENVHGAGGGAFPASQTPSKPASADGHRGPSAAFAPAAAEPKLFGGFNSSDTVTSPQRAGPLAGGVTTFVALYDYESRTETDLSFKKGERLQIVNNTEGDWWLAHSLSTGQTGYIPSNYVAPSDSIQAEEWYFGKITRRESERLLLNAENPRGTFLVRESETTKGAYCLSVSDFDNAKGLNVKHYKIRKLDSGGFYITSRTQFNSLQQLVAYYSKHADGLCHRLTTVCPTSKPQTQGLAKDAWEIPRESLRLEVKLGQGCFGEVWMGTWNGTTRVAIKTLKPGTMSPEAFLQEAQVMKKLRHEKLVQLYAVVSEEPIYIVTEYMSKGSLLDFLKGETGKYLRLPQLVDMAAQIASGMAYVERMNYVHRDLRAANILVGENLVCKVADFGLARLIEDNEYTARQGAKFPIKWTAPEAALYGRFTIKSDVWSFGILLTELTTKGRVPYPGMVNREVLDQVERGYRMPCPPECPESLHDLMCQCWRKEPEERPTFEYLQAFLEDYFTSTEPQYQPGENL
Chain of EPHA2 (P29317 24-976): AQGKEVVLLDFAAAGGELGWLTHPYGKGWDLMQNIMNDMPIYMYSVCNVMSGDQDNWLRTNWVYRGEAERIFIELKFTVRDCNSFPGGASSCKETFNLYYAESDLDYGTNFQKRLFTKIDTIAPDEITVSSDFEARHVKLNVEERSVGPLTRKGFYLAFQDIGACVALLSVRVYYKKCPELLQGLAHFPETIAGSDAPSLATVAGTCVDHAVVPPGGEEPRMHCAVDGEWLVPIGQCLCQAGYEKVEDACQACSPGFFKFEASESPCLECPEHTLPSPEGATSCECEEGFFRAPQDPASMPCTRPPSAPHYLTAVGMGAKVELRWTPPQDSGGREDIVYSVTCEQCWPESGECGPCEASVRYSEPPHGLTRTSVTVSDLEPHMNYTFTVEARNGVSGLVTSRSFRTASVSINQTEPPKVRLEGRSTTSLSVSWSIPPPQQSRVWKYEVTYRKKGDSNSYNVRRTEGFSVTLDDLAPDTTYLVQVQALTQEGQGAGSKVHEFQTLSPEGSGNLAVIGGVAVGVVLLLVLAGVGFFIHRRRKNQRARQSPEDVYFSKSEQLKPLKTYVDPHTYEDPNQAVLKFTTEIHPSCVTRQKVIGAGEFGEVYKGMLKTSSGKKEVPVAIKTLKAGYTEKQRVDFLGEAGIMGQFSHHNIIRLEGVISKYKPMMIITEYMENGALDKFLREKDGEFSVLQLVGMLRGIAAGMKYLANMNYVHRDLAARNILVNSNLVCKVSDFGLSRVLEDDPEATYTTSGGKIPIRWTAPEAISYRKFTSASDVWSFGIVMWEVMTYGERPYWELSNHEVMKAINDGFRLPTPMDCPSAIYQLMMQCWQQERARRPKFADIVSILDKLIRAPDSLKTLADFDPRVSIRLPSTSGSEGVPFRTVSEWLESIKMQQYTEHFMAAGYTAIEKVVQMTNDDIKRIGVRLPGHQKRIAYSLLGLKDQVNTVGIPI
Chain of CK1e (P49674 whole entry): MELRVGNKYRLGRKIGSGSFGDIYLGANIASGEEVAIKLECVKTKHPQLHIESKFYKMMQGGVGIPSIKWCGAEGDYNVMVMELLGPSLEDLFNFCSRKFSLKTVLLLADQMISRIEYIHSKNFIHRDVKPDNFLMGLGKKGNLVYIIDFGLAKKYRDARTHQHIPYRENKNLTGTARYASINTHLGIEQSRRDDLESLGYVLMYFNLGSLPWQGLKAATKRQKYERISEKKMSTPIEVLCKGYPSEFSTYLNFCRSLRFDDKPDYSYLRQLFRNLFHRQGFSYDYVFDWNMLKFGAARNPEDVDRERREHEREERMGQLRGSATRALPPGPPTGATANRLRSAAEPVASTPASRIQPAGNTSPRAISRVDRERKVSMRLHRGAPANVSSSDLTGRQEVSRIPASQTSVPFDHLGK
Chain of TNIK (Q9UKE5 whole entry): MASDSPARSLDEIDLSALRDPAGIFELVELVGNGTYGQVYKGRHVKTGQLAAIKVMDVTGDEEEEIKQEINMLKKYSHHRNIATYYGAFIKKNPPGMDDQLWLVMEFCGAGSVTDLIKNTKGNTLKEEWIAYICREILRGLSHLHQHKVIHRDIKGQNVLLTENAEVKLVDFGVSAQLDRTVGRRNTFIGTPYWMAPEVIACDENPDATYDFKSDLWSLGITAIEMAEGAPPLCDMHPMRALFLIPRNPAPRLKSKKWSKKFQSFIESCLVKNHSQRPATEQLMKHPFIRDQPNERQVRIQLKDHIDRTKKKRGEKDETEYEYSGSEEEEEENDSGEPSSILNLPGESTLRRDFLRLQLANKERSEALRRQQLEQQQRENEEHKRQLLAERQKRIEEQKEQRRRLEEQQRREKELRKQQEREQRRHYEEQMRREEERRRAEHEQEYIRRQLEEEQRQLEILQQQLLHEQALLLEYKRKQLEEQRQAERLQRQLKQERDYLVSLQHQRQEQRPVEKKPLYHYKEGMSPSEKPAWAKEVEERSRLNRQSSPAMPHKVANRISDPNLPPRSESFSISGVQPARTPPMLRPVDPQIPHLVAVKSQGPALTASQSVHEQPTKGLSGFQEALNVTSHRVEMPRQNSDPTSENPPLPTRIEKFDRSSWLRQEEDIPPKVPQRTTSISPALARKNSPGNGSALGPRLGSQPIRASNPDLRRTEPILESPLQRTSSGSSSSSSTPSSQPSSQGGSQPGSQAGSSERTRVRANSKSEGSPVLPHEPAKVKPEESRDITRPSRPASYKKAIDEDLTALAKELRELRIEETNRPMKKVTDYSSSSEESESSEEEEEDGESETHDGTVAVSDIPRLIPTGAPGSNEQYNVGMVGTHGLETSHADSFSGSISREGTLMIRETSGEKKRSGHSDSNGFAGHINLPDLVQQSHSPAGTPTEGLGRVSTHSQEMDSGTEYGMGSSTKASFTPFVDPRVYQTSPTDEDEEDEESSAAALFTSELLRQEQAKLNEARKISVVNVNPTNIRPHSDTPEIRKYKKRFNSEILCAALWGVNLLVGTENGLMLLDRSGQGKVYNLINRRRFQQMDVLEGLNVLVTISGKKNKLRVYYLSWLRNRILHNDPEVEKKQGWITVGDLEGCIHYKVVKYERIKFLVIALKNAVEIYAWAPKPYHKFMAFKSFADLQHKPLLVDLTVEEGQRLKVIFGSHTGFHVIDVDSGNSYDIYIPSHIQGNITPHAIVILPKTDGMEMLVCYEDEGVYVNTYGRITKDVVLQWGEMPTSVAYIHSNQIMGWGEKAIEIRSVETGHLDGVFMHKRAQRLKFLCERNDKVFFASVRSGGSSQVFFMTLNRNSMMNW
Chain of MSK1/RPS6KA5 (O75582 whole entry): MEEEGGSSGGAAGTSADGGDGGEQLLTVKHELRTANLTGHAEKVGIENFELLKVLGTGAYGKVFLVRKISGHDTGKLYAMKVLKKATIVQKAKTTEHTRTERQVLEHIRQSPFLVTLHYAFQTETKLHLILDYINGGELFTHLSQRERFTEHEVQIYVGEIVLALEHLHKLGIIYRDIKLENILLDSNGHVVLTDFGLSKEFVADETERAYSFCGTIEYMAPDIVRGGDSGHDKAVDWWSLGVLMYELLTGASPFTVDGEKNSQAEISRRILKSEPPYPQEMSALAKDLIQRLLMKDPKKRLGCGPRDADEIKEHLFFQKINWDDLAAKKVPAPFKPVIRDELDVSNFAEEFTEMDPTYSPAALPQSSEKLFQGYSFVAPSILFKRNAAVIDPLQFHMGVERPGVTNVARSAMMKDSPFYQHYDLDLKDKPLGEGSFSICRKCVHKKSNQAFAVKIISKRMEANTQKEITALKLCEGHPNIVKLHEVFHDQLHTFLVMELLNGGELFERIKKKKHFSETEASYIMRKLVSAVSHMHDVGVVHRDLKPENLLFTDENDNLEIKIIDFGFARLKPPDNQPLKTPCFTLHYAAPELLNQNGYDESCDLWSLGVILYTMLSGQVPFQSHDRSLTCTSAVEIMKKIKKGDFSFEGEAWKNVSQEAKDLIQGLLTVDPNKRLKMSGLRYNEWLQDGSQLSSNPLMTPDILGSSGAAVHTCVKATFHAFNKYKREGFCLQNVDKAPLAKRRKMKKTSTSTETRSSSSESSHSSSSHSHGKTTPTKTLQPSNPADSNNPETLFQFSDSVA

## CNc1c(C(N)=O)c2ccccn2c1C(=O)c1ccc(F)cc1 [Compound A, 2-methyl-amino-3-[(4-fluorophenyl)carbonyl]indolizine-1-carboxamide]
RIPK2; listed as Cmp A
  % of remaining activity (relative to DMSO): 91.39%
RIPK2
  remaining activity at 10 µM: 93.5%
YES/YES1; listed as Cmp A
  % of remaining activity (relative to DMSO): 60.09%
YES/YES1
  remaining activity at 10 µM: 58.4%
PKA; listed as Cmp A
  % of remaining activity (relative to DMSO): 82.86%
PKA
  remaining activity at 10 µM: 84.3%
CK1g3; listed as Cmp A
  % of remaining activity (relative to DMSO): 97.24%
CK1g3
  remaining activity at 10 µM: 98.5%
c-Src; listed as Cmp A
  % of remaining activity (relative to DMSO): 60.86%
c-Src
  remaining activity at 10 µM: 61%
PKCb2; listed as Cmp A
  % of remaining activity (relative to DMSO): 111.60%
PKCb2
  remaining activity at 10 µM: 113%
ALK5/TGFBR1; listed as Cmp A
  % of remaining activity (relative to DMSO): 109.38%
ALK5/TGFBR1
  remaining activity at 10 µM: 110%
CDK5/p25; listed as Cmp A
  % of remaining activity (relative to DMSO): 88.62%
CDK5/p25
  remaining activity at 10 µM: 90.2%
P38a/MAPK14; listed as Cmp A
  % of remaining activity (relative to DMSO): 34.47* %
P38a/MAPK14
  remaining activity at 10 µM: 35.3%
JNK2; listed as Cmp A
  % of remaining activity (relative to DMSO): 97.26%
JNK2
  remaining activity at 10 µM: 99.9%
LCK; listed as Cmp A
  % of remaining activity (relative to DMSO): 39.87%
LCK
  remaining activity at 10 µM: 39.4%
EGFR; listed as Cmp A
  % of remaining activity (relative to DMSO): 52.51%
EGFR
  remaining activity at 10 µM: 55.8%
MSK1/RPS6KA5; listed as Cmp A
  % of remaining activity (relative to DMSO): 111.83%
MSK1/RPS6KA5
  remaining activity at 10 µM: 117%
PDK1/PDPK1; listed as Cmp A
  % of remaining activity (relative to DMSO): 105.50%
PDK1/PDPK1
  remaining activity at 10 µM: 107%
GSK3B; listed as Cmp A
  % of remaining activity (relative to DMSO): 122.02%
GSK3B
  remaining activity at 10 µM: 124%
KDR/VEGFR2; listed as Cmp A
  % of remaining activity (relative to DMSO): 109.28%
KDR/VEGFR2
  remaining activity at 10 µM: 111%
CLK2; listed as Cmp A
  % of remaining activity (relative to DMSO): 105.40%
CLK2
  remaining activity at 10 µM: 100%
CK1g2; listed as Cmp A
  % of remaining activity (relative to DMSO): 99.83%
CK1g2
  remaining activity at 10 µM: 95.5%
EPHA2; listed as Cmp A
  % of remaining activity (relative to DMSO): 55.67%
EPHA2
  remaining activity at 10 µM: 59%
CK1g1; listed as Cmp A
  % of remaining activity (relative to DMSO): 119.87%
CK1g1
  remaining activity at 10 µM: 107%
CK1e; listed as Cmp A
  % of remaining activity (relative to DMSO): 3.67%
CK1e
  remaining activity at 10 µM: 2.81%
PIM3; listed as Cmp A
  % of remaining activity (relative to DMSO): 119.96%
PIM3
  remaining activity at 10 µM: 125%
TNIK; listed as Cmp A
  % of remaining activity (relative to DMSO): 94.12%
TNIK
  remaining activity at 10 µM: 94.4%

## Nc1ncnc2c1c(COc1cccc(Cl)c1)nn2C1CCOCC1 [PF4800567, 3-[(3-Chlorophenoxy)methyl]-1-(tetrahydro-2H-pyran-4-yl)-1H-pyrazolo[3,4-d]pyrimidin-4-amine]
RIPK2
  remaining activity at 10 µM: 47.6%
YES/YES1
  remaining activity at 10 µM: 15.5%
PKA
  remaining activity at 10 µM: 83%
CK1g3
  remaining activity at 10 µM: 88.9%
c-Src
  remaining activity at 10 µM: 44%
PKCb2
  remaining activity at 10 µM: 88.5%
ALK5/TGFBR1
  remaining activity at 10 µM: 105%
CDK5/p25
  remaining activity at 10 µM: 97.7%
P38a/MAPK14
  remaining activity at 10 µM: 71.2%
JNK2
  remaining activity at 10 µM: 96.5%
LCK
  remaining activity at 10 µM: 19.9%
EGFR
  remaining activity at 10 µM: 68.8%
MSK1/RPS6KA5
  remaining activity at 10 µM: 104%
PDK1/PDPK1
  remaining activity at 10 µM: 103%
GSK3B
  remaining activity at 10 µM: 114%
KDR/VEGFR2
  remaining activity at 10 µM: 83.1%
CLK2
  remaining activity at 10 µM: 105%
CK1g2
  remaining activity at 10 µM: 86%
EPHA2
  remaining activity at 10 µM: 39%
CK1g1
  remaining activity at 10 µM: 85.1%
CK1e
  remaining activity at 10 µM: 3%
PIM3
  remaining activity at 10 µM: 116%
TNIK
  remaining activity at 10 µM: 89.7%
